# Key:
# NGF = details: intravenous injection, female rats; cited from earlier work
# musculocutaneous flaps = assay: Survival of musculocutaneous flaps in rats after administration of oxytocin (Test 1); assay type: in vivo, rats (Sprague-Dawley); details: 1 mg/kg s.c. 24 h and 1 h before and 24 h after operation; estimated six days after operation; oxytocin p<0.05, antagonist no significance p=0.13
# Description: An established model of wound healing is to investigate the survival of musculocutaneous flaps in rats. In plastic surgery, reconstructive problems are often solved by surgical flaps. The main disadvantage of surgical flaps has been their tendency to develop ischemia and eventually necrosis of the distal part. This complication can in the end ruin what postoperatively seemed to be an excellent result. Much research has been devoted to explain the mechanisms of surgical skin flap survival and how to prevent and reverse established ischemia.
# The aim of this study was to investigate the effects of oxytocin on the survival of musculocutaneous flaps in rats.
# 71 female albino rats (Sprague-Dawley, weight 180-220 g) were anaesthetized with chloralhydrate (0.4 g/kg), shaved on the back and a dorsal cranially based standard flap (2×7 cm) was elevated and then sutured back in position. The flap was raised from the deep fascia of muscle and included the superficial fascia, panniculus carnosus, subcutaneous tissue and skin. 24 h and 1 h before operation, respectively, as well as 24 h after operation the rats were treated with 1 mg/kg oxytocin s.c. (n=20), an oxytocin antagonist, that is 1-deamino-2-D-Tyr-(OEt)-4-Thr-8-Orn-oxytocin in an amount of 1 mg/kg (n=15), with 1 mg/kg of said oxytocin antagonist and then after 30 minutes with 1 mg/kg oxytocin (n=16), or with saline (n=20). […]
# central α2 -receptors = assay: Activity of central α2-receptors after oxytocin; assay type: in vivo; details: rats; by way of a central action
# Description: Experiments have shown that oxytocin by way of a central action increases the activity of the central α2 -receptors in rats. These receptors have an inhibitory action and counteracts the activating aspects of noradrenalin in the brain which are mainly mediated via α1 -receptors, which activate cyclic AMP. When α2 -receptor stimulation dominates over α1 -receptor stimulation, activity is exchanged by relaxation and energy is shunted towards growing and healing, i.e. is not used for stress or muscular contraction and activity. As a consequence parasympathetic nerve tone dominates over sympathetic nervous tone and the musculature is relaxed. It can be presumed that oxytocin exerts a similar effect also in humans. During breast feeding--a situation characterized by repetitive oxytocin secretion--all the effects observed in experimental animals following repeated oxytocin administration are seen. It is not known how the effect by oxytocin on α2 -receptors is mediated, but probably not by a classical oxytocin receptor mediated effect.
# [1] = test system: full-thickness dermal excisional wounds; assay: Wound healing in diabetic mice after administration of oxytocin (Test 2); assay type: in vivo, C57BL/Ks-db/db diabetic mice
# Description: For studying the effects of cutaneous wound-healing agents on chronic non-healing dermal ulcers the mutant C57BL/Ks-db/db diabetic mouse has emerged as a potentially relevant healing-impaired model. These homozygous genetically diabetic mice develop obesity and hyper-glycemia that is resistant to insulin, analogous to human type II diabetes. They also show signs of diabetes such as excessive drinking and urination and greatly elevated urinary glucose levels. […] Previous studies have used this model to evaluate formulations of aFGF.
# Female C57BL/Ks-db/db diabetic mice, 11 weeks old, were obtained from Jackson Laboratories (Bar Harbor, Me.). The mice were housed in sterile microisolator boxes (four per box) with sterile water and bedding and were kept in a semi-barrier quarantine facility. Supplemental heat was provided with electric heating pads under half of each box after wounding to prevent hypothermia and reduce mortality.
# Mice were anesthetized with intraperitoneal injections of 110 mg ketamine and 9 mg xylazine per kg of body weight. The mid-back and thoracic skin was shaved and disinfected with a 2% Chlorhexidine surgical scrub, followed by 70% ethanol. A template 1.6 cm in diameter was used to mark a 2.0 cm^2 circle on the mid-dorsal area, and a single full-thickness wound was created by blunt excision with sterile curved iris scissors. […] All surgical and subsequent healing analysis procedures were performed in a laminar flow hood using full aseptic techniques. Doses were administrated on 5 consecutive days before, and on day 0, 3 and 7 after injury. Oxytocin was administrated at different doses, 0.001, 0.01, 0.1, 1.0, 10.0 and 100.0 μg/cm^2 , respectively, to groups of 16 mice per dose. The wounds were covered with a semitransparent Bioclusive dressing (Johnson & Johnson Products, New Brunswick, N.J.) for protection, maintenance of a moist environment and prevention of crust formation. Wound fluid samples were taken at day 10 after injury and cultured for aerobic and anaerobic microorganisms.
# Wound appearances were recorded photographically and their perimeters were traced onto sterile glass slides applied directly to the exposed wound surfaces after pre-wetting with a drop of sterile physiologic saline. Measurements were made immediately after wounding and twice weekly thereafter until the wounds were completely closed. Wound areas and perimeters were determined from the glass-slide tracings using computerized image analysis. Statistical significances of differences between groups were evaluated using an unpaired two-tailed Student t-test.
# Healing expressed as a decrease in percent initial area was converted to linear ingrowth from the wound edges by dividing the differences in wound areas by the average wound perimeters at sequential time intervals. Total ingrowth at a specific time is the sum of the incremental ingrowth distances up until that time. This transformation linearized closure as a function of time, thereby allowing expression of healing as kinetic rates that were constant over time.
# Wounds, examined twice weekly to monitor time to total closure, were considered fully healed when moist granulation tissue was no longer apparent, indicating a functional epidermal water-permeability barrier. Closure was also confirmed histologically. Time-point comparisons of the fraction of healed versus unhealed wounds were analyzed by the X^2 statistic with Yates correction, and group comparisons of absolute days to total closure for individual animals were analyzed by an unpaired two-tailed Student t-test.
# FGF-1 = assay: Concentration of FGF in skin biopsies from the injured area of diabetic mice; assay type: in vivo, C57BL/Ks-db/db diabetic mice; details: 10 μg/cm^2 oxytocin; skin biopsies 7 days after injury; ten mice; p<0.001
# Description: The concentration of FGF was compared in skin biopsies taken from the injured area ("ulcer") of ten mice treated with 10 μg/cm^2 oxytocin and ten mice treated with PBS 7 days after injury. […] This increase in concentration was highly significant (p<0.001) and strongly support the hypothesis that oxytocin increases wound healing through an increased expression and synthesis of FGF-1.
compound,measurement,setting,value
CC[C@H](C)[C@@H]1NC(=O)[C@H](Cc2ccc(O)cc2)NC(=O)[C@@H](N)CSSC[C@@H](C(=O)N2CCC[C@H]2C(=O)N[C@@H](CC(C)C)C(=O)NCC(N)=O)NC(=O)[C@H](CC(N)=O)NC(=O)[C@H](CCC(N)=O)NC1=O [oxytocin],hypothalamic levels of NGF,NGF,increase
same,survival of the flaps compared to the saline-treated controls,musculocutaneous flaps,significantly higher
same,activity of the central α2 -receptors,central α2 -receptors,increases
same,healing rates over paired vehicle controls,"[1]; 0.001 μg/cm^2, 0.01 μg/cm^2 and 0.1 μg/cm^2 doses",ineffective
same,linear rate of healing from the wound edges,"[1]; 10 μg/cm^2, all time intervals, p≤0.01",increased
same,enhancement of the healing rate of treated wounds,"[1]; 10 μg/cm^2, as early as day 7 after injury and throughout the test period, p≤0.01",Statistically significant enhancements
same,total closure (fraction of wounds closed),"[1]; 10 μg/cm^2, by day 14, p≤0.05",increases
same,decrease in wound size in treated mice compared with PBS/heparin vehicle,"[1]; 10 μg/cm^2, day 14",10 fold
same,maximum difference in percent of initial area between oxytocin and vehicle-treated wounds,"[1]; 10 μg/cm^2, from 14 d after injury",50%
same,mean linear healing rate,"[1]; 10 μg/cm^2, vehicle-treated group 0.18 mm/d, p≤0.01",0.45 mm/d
same,decrease of time to total closure,[1]; 0.001-μg/cm^2 and 0.01 μg/cm^2 doses,ineffective
same,time required for wounds to close completely,[1]; 1 to 100 μg/cm^2 per dose,significantly reduced
same,wounds closed sooner than respective vehicle controls,[1]; dose range 1.0 to 10.0 μg/cm^2,approximately 10 d
same,wound closure compared with vehicle control,"[1]; three doses of 10 μg per cm^2 initial wound area during first week after wounding, topical",substantially faster
same,median time to complete closure,"[1]; three doses of 10 μg/cm^2 during first week after injury, vehicle 52 d, p≤0.0001",23 days
same,healing rates over paired vehicle controls,"[1]; three topical applications, 1 to 100 μg/cm^2 per dose, first week after injury",significant dose-related increases
same,"FGF-1 synthesized, increase compared to PBS vehicle treated mice",FGF-1,162%

# Source: US6262021A, “Use of substances having oxytocin activity for preparation of medicaments for wound healing” (EntreTech Medical AB, priority 1997, dated 2001)
